Measurements: patent US20210015857A1, “METHOD FOR IMMUNOTHERAPY DRUG TREATMENT” (The University of Western Australia, priority 2018, published 2021)

How the values were obtained:
[1] = system: Renca kidney cancer tumours; assay: Oral retinoids combined with ICB in Renca kidney cancer-bearing mice; assay type: in vivo, mouse; conditions: retinoid oral 6 days from day 9, ICB days 12, 14, 16 (FIG. 24)
Procedure: The following retinoids and dosages were employed: Bexarotene (Saphire Bioscience) was dosed at 100 mg/kg; tretinoin and isotretinoin (Sigma-Aldrich) were all dosed at 10 mg/kg.

Renca kidney cancer = assay: pSTAT1 flow cytometry of tumours after tretinoin; assay type: in vivo, mouse; conditions: tretinoin (FIG. 22C)
Procedure: (§1) For detection of phospho-STAT1, dissociated tumours were stained with surface antibodies, fixed with 1.5% formaldehyde for 10 minutes, then permeabilized with ice-cold methanol at 4° C. for 10 minutes. Cells were stained with a rabbit-anti-pSTAT1 antibody (Tyr701) -PE (Cell Signaling Technology) for 30 minutes at room temperature (RT).
To test whether retinoids induce the ICB response-associated phenotype characterised by increased NK cells, inflammatory markers and pSTAT1 positive leukocytes in the tumour, Renca kidney cancer-bearing mice were treated for […] with oral tretinoin (10 mg/kg) starting on day 12 and harvested tumours on day 15 for flow cytometry. In subsequent experiments AB1-HA mesothelioma or CT26 colorectal cancer tumour-bearing mice were treated with tretinoin for 3 days at 10 mg/kg i.p., starting on day 10 and harvested tumours on day 13 for flow cytometry and immunohistochemistry.

[2] = system: AB1-HA mesothelioma tumours; assay: Tretinoin combined with ICB in AB1-HA tumour-bearing mice, tumour growth; assay type: in vivo, mouse
Procedure: […] The administration of tretinoin to the mice started either 3 days before ICB or at the same time as the ICB (arm 6). Tretinoin was dosed at three dosages; 10 mg/kg (arm 3), 5 mg/kg (arm 4) or 1 mg/kg (arm 5) and was given for 9 days in total.

CT26 colorectal tumours = assay: pSTAT1 immunohistochemistry of tumours after tretinoin; assay type: in vivo, mouse; conditions: tretinoin 10 mg/kg (FIG. 22A, B)
Procedure: For immunohistochemical staining of STAT1 and pSTAT1, slides of 4-μm thickness were cut from formalin-fixed, parafin-embedded (FFPE) tissue blocks. Subsequently, slides were deparafinized in two changes of xylene for about 5 min followed by rehydration in changes of 100%, 96%, 70% and 40% ethanol and distilled water. Next, for STAT1 staining, antigen retrieval using 10 mM citrate buffer (pH 6.0) was performed for about 10 min at 121° C. using a pressure cooker (the PT-module, Thermo scientific, labvision). For pSTAT1 staining, slides were sub-boiled in 1 M EDTA buffer (pH 8.0) for about 10 minutes in a microwave. Slides were rinsed in TBST and the endogenous peroxidase was blocked using 3% hydrogen peroxidase (Sigma) in distilled water. Sections were washed again in TBST and blocked with goat serum (Vectastain) diluted in PBS as per manufacturer's instructions. Primary antibody, STAT1 or pSTAT1 (Cell Signaling, dilution: 1/800 and 1/200 respectively), was incubated for 60 minutes at room temperature (RT). Sections were washed and secondary antibody, goat anti-Rb IgG-HRP (Santa Cruz), was incubated for about 30 minutes at RT, before washing again. Betazoid DAB chromogen (Biocare Medical) was prepared as per manufacturer's instructions. Chromogen was applied, sections were monitored for the development of a brown colour and the reaction was stopped with H2O. […]

urothelial cancer = conditions: 348 urothelial cancer patients; cited from earlier work
melanoma = melanoma cohort n=33; cited from earlier work
[3] = system: AE17 mesothelioma tumours; assay: Poly(I:C) pretreatment followed by ICB with or without IFNAR blocking antibody, tumour growth; assay type: in vivo, mouse
Procedure: To test whether the mechanism underlying the priming effect of Poly-I:C was mediated through IFN alpha/beta induction (as discussed in Example 6), priming experiments were repeated while adding blocking antibodies against the IFN alpha/beta receptor (IFNAR). C57BL/6 AE17 mesothelioma tumour-bearing mice were treated with CPB on day 22 after tumour inoculation, with or without pretreatment of 3 days of 50 μg s.c. Poly-I:C in the tumour area (day 17-19), with or without blocking antibodies against IFNAR (e.g., […] monoclonal antibody MAR1-5A3 as sourced from BiXcell) (0.5 mg i.p., 3 times/week) starting at the same time.

[4] = system: AE17 mesothelioma tumours; assay: Flow cytometry of AE17 tumours after intratumoural IFN alpha or poly(I:C) pretreatment; assay type: in vivo, mouse; conditions: intratumoural 3 days, vs PBS (FIG. 17)
Procedure: For flow cytometry, tumours were harvested and immediately submerged in cold PBS, cut into 1-2 mm pieces with a scalpel blade and dissociated using the GentleMACS system. Fc block (anti-CD16/CD32, BD) was used for 10 minutes on ice. UV Zombie live/dead (Biolegend) was used to discriminate live cells. Cells were permeabilized and fixed using FoxP3 fix/Perm buffer kit (Biolegend) before addition of antibodies for 20 minutes at RT. See Supplementary Table 2 for antibody details. Cells were kept in stabilizing fixative until acquisition. Data were acquired on a BD Fortessa flow cytometer and analyzed using FlowJo software (TreeStar).
as §1
To verify the potential of recombinant IFN alpha to induce the response-associated phenotype (i.e., to sensitise the tumour cellular microenvironment to ICB) similarly to Poly-I:C, AE17 mesothelioma tumour-bearing mice were pretreated with Poly-I:C or recombinant IFN alpha (: R&D systems) intratumourally for 3 days (or PBS control). […]

Compound: C=C(c1ccc(C(=O)O)cc1)c1cc2c(cc1C)C(C)(C)CCC2(C)C [bexarotene]
- percentage of complete regression after combination therapy with ICB, compared to ICB alone [1]: increased percentage of complete regression

Compound: CC1=C(/C=C/C(C)=C/C=C/C(C)=C\C(=O)O)C(C)(C)CCC1 [isotretinoin, 13-cis-retinoic acid]
- percentage of complete regression after combination therapy with ICB, compared to ICB alone [1]: increased percentage of complete regression

Compound: CC1=C(/C=C/C(C)=C/C=C/C(C)=C/C(=O)O)C(C)(C)CCC1 [tretinoin, all-trans retinoic acid]
- pSTAT1 positive leukocytes in tumours (flow cytometry) (Renca kidney cancer): increased pSTAT1 positive leukocytes in tumours, particularly in MHC class II positive cells
- efficacy of ICB, retinoid before ICB vs at same time as ICB ([2]; AB1-HA (FIG. 21)): markedly improved the efficacy of ICB compared to when the retinoid was administered at same time as ICB
- efficacy of combination with anti-PD-L1 antibody alone as ICB ([2]; AB1-HA, tretinoin 10 mg/kg i.p. 9 days from day 6, anti-PD-L1 days 8, 10, 12 (FIG. 23)): more efficacious than use of the antibody alone
- response of the tumours to ICB ([2]; AB1-HA, tretinoin 10, 5 or 1 mg/kg for 9 days starting 3 days before anti-CTLA4/anti-PD-L1 (FIG. 21)): improved the response of the tumours to ICB in a dose-dependent manner
- pSTAT1 immune cell infiltrates in tumours (immunohistochemistry) (CT26 colorectal tumours): increased patches of pSTAT1 immune cell infiltrates

Compound: atezolizumab: anti-PD-L1 antibody
- best response: complete responders (CR), number of patients (urothelial cancer): 25
- best response: partial responders (PR), number of patients (urothelial cancer): 43
- best response: progressors (PD), number of patients (urothelial cancer): 167
- best response: stable disease (SD), number of patients (urothelial cancer): 63

Compound: nivolumab: anti-PD1 antibody
- non-responsive (PD), number of patients (melanoma): 23
- responsive (CR and PR), number of patients (melanoma): 10

Compound: olyinosinic:polycytidylic acid [poly(I:C)]
- beneficial effect of pretreatment under IFNAR blockade ([3]; cotreatment with IFNAR blocking antibodies (FIG. 16)): abrogated
- tumour growth ([3]; poly(I:C) 3 days before ICB, vs ICB alone (FIG. 16)): clear delay in tumour growth compared to ICB alone
- NK infiltration (NK cells of all leukocytes) [4]: increased NK cell numbers
- STAT1 phosphorylation (pSTAT1 activation) [4]: pSTAT1 activation
